For 16 compounds, IC50 and EC50 results are on record in patent US20240228469A1, “PCSK9 INHIBITORS AND METHODS OF USE THEREOF” (AstraZeneca AB, priority 2022, published 2024).

As usually defined, the IC50 is the midpoint of a concentration-inhibition curve.

Assay [1] concerns the target T1, potassium ion channel hERG (Homo sapiens, UniProt Q12809).
T1 construct: expressed in transfected cells; host or cells: Chinese hamster ovary K1 (CHO)
The assay is described as follows: Assay 5 hERG assay (patch clamp, CHO cells over-expressing hERG). The format is cell-based. The conditions noted are these: SyncroPatch 384PE, room temperature, geometric mean, read-out: Assay 5 (hERG Hu CHO if EPh CR-Syncro) GMean IC50. In a few lines: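 hERG currents recorded by automated patch clamp at room temperature in CHO-K1 cells, 6-point cumulative concentrations. SyncroPatch runs used KF-based internal (pH 7.2) and NMDG-containing external solution (pH 7.4), 0.33% DMSO; QPatchII runs used 2% or 0.4% DMSO. Only wells meeting seal-resistance and current-size criteria kept.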
(In general: hERG is a cardiac potassium channel; its block is linked to QT prolongation.)

Assay [2] deals with GSK3β (Glycogen synthase kinase-3 beta) (Homo sapiens, UniProt P49841). The assay is described as follows: Assay 6 GSK3β assay (ThermoFisher Z-Lyte FRET). The format is biochemical. Conditions: ATP Conc: 10 μM, geometric mean; read-out: Assay 6 (GSK3β FRET-Z-Lyte Cr) GMean IC50. The procedure, abridged:
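Z-Lyte FRET: 0.22-0.92 ng kinase with 2 μM Ser/Thr 09 peptide in HEPES pH 7.5, MgCl2, EGTA, 60 min at room temperature, then 60 min development. Compounds in 1% DMSO, 10-point 3-fold series from 10 μM; sigmoidal dose-response fit.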

In assay [3] the target is T2, PCSK9 (Homo sapiens, UniProt Q8NBP7, G670E/V474I). The assay is described as follows: biochemical.
T2 sequence (Q8NBP7 with tags, fused parts or gaps V474I/G670E): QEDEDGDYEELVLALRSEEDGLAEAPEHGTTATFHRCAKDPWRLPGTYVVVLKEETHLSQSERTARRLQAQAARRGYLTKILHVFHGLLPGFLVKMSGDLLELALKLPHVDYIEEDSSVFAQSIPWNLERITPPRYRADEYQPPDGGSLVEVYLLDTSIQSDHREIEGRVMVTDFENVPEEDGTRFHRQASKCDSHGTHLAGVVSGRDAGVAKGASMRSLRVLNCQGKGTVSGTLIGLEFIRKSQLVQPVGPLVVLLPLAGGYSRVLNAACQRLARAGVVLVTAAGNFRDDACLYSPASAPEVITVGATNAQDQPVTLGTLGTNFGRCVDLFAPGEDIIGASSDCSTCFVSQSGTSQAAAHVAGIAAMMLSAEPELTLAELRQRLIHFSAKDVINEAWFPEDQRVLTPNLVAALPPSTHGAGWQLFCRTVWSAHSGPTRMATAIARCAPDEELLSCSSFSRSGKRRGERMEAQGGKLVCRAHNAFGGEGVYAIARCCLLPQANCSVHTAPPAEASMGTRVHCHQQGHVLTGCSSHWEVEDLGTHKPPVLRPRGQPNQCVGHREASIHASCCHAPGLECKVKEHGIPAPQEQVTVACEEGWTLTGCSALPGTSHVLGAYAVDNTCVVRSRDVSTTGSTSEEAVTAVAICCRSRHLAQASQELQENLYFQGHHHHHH
The target in assay [4] is T2, PCSK9. As to the kind of experiment: Assay 3 PCSK9 LDL-C uptake assay in HepG2 cells. On the set-up: TEV site (C); His6 (C); host or cells: added to HepG2 (ATCC #HB-8065). Conditions: 125 nM PCSK9, pHrodo Red-LDL, read-out: Assay 3 LDL uptake potency. The format is cell-based. An excerpt: This assay measures for PCSK9 antagonist activity based on a test compound's capacity to restore LDL-C-uptake in HepG2 cells. The assay is based on exogenous PCSK9 and LDL-C complexed with a pH-sensitive dye. Outside the cells, at neutral pH, the pHrodo Red-LDL is dimly fluorescent but upon LDLR mediated endocytosis it fluoresces brightly. PCSK9 traffics the LDLR to intracellular degradation and reduces uptake of LDL-C. Inhibition of PCSK9 reduces LDLR degradation and the increased LDL-C uptake is quantified by fluorescence microscopy.
• Cell medium: MEM supplemented with 10% FBS, 1×NEAA and Sodium Pyruvate • Assay medium: OptiMem supplemented with penicillin/streptomycin • Cells: HepG2 (ATCC #HB-8065)
• 1. Cryopreserved HepG2 cells were thawed in assay medium and centrifuged for 5 min at 250 g. Supernatant was discarded and the cell pellet resuspended in cell medium and counted with a Nucleocounter. Cells were again centrifuged 5 min at 250 g and the pellet was resuspended to 500000 cells/mL in assay medium. • 2. 20 μL of above cell mix was dispensed into black μclear TC treated 384 well plates with Multidrop Combi and left at room temperature for 20 minutes. • 3. Plates were incubated at 37° C., 5% CO2 for 24 h
• 1. Test compounds were prepared in concentration response in DMSO with a half-log dilution factor in DMSO in Echo 384 LDV plates starting at 10 mM. • 2. 30 nL of above test compounds were dispensed with Echo 655 to cells for a top concentration of 10 μM • 3. 10 μL PCSK9 in assay medium was dispensed to cells with Multidrop Combi for 125 nM final concentration in the wells. • 4. Plates were incubated at 37° C., 5% CO2 for 24 h
• 1. 10 μL pHrodo Red-LDL in assay medium was dispensed to cells with Multidrop Combi for […] • 2. Plates were incubated at 37° C., 5% CO2 and imaged with the Incucyte S3 after 4 h and 24 h
Image data was processed using Incucyte 2021, a software to identify cells and red fluorescent intensity. Screener was used to further process data. Data was normalized as % effect of the signal between median values of the on-plate controls of DMSO and 100 nM Evolocumab according to the formula % effect=−100*(x−DMSO)/(Evolocumab−DMSO) where x equals the measured signal. Concentration response data of the normalized values were fitted using a four-parameter logistic fit.

T1 sequence (Q12809 whole entry): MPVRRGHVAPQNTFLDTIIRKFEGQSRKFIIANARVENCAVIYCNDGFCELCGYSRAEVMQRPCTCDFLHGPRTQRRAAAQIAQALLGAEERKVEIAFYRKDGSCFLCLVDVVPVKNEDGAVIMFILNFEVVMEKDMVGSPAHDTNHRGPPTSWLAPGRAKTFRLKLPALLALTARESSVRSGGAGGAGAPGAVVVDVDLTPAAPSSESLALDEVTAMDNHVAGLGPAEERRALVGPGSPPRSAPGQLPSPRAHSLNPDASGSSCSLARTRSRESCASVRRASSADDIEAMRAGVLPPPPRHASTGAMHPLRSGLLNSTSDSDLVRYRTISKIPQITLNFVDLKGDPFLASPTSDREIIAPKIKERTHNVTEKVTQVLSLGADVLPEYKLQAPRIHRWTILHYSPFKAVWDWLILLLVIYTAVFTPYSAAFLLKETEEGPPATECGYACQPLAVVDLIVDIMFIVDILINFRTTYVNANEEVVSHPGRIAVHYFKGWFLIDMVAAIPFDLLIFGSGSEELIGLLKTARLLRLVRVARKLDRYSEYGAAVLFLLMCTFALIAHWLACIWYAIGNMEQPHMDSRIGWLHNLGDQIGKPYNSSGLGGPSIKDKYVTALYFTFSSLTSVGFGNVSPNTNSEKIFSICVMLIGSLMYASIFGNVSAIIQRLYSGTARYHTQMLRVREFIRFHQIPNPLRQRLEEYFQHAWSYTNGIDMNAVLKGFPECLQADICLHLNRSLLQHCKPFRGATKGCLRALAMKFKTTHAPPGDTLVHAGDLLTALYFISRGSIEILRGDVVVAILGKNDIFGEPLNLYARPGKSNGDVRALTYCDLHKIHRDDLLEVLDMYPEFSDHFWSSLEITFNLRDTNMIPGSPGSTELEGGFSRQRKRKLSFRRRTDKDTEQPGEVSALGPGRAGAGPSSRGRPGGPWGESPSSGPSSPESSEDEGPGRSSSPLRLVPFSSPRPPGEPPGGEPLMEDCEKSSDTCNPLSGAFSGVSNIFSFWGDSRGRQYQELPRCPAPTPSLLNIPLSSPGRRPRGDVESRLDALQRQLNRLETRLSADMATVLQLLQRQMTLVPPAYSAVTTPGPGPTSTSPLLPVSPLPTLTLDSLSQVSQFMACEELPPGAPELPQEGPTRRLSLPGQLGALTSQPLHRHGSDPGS
GSK3β (Glycogen synthase kinase-3 beta), sequence (P49841 whole entry): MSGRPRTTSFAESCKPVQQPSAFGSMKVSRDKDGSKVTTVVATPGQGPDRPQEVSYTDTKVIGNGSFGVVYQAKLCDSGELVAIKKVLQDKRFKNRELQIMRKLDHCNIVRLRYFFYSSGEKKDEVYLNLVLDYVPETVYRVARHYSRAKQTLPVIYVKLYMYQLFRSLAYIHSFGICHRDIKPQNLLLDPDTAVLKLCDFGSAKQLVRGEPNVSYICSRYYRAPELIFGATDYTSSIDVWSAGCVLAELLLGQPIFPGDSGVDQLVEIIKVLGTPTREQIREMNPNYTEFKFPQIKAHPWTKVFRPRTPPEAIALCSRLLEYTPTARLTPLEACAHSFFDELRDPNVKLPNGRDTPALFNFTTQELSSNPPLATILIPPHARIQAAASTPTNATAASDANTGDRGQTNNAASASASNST

`COc1ccn(-c2ccc(N[C@H]3CC[C@H](Nc4ncc(C)nn4)C3)nc2)c(=O)c1` [Example 180, 4-Methoxy-6′-(((1S,3S)-3-((6-methyl-1,2,4-triazin-3-yl)amino)cyclopentyl)amino)-2H-[1,3′-bipyridin]-2-one]: the values for the IC50 (in assay [1]; in assay [2]; on PCSK9 [3]) were over 40100 nM, over 10000 nM and 6 nM, respectively. Besides, at PCSK9 [4], the EC50 came out at 300 nM.
For `O=c1ccc(-c2cn[nH]c2)cn1-c1ccc(N[C@H]2CC[C@H](Nc3ncc(C4CC4)nn3)C2)nc1` [Example 123, 6′-(((1S,3S)-3-((6-Cyclopropyl-1,2,4-triazin-3-yl)amino)cyclopentyl)amino)-5-(1H-pyrazol-4-yl)-2H-[1,3′-bipyridin]-2-one], in that order: over 40100 nM, 8840 nM, 1.4 nM and 100 nM.
Take `O=c1ccc(-c2c[nH]nn2)cn1-c1ccc(N[C@H]2CC[C@H](Nc3ncc(C4CC4)nn3)C2)nc1` [Example 122, 6′-(((1S,3S)-3-((6-Cyclopropyl-1,2,4-triazin-3-yl)amino)cyclopentyl)amino)-5-(1H-1,2,3-triazol-4-yl)-2H-[1,3′-bipyridin]-2-one]: the IC50 is over 40100 nM in assay [1], 6170 nM in assay [2] and 1.4 nM against PCSK9 [3]. For the same compound, the EC50 on PCSK9 [4] was determined as 100 nM.
Take `Cc1cnc(N[C@H]2CC[C@H](Nc3ccc(-n4c(=O)n(C)c5cc(C#N)cnc54)cn3)C2)nn1` [Example 214, 1-Methyl-3-(6-(((1S,3S)-3-((6-methyl-1,2,4-triazin-3-yl)amino)cyclopentyl)amino)pyridin-3-yl)-2-oxo-2,3-dihydro-1H-imidazo[4,5-b]pyridine-6-carbonitrile]: the IC50 in assay [1] was over 40100 nM; in assay [2], over 10000 nM; on PCSK9 [3], 3.4 nM. In addition, the EC50 at PCSK9 [4] came out at 700 nM.
For `Cc1cnc(N[C@H]2CC[C@H](Nc3ccc(-n4c(=O)n(C)c5cc(C#N)ccc54)cn3)C2)nn1` [Example 211, 3-Methyl-1-(6-(((1S,3S)-3-((6-methyl-1,2,4-triazin-3-yl)amino)cyclopentyl)amino)pyridin-3-yl)-2-oxo-2,3-dihydro-1H-benzo[d]imidazole-5-carbonitrile], in that order: 16500 nM, over 10000 nM, 1.4 nM and 100 nM.
As to `O=C(NC1COC1)c1cnc(N[C@H]2CC[C@H](Nc3ccc(-n4cccc(Cl)c4=O)cn3)C2)nn1` [Example 157, 3-(((1S,3S)-3-((3-Chloro-2-oxo-2H-[1,3′-bipyridin]-6′-yl)amino)cyclopentyl)amino)-N-(oxetan-3-yl)-1,2,4-triazine-6-carboxamide], the IC50 in assay [1] was over 40100 nM; in assay [2], 7780 nM; against PCSK9 [3], 2.1 nM. Further, the EC50 on PCSK9 [4] turned out to be 100 nM.
For `Cc1cnc(N[C@H]2CC[C@H](Nc3ccc(-n4cccc(F)c4=O)cn3)C2)nn1` [Example 137, 3-Fluoro-6′-(((1S,3S)-3-((6-methyl-1,2,4-triazin-3-yl)amino)cyclopentyl)amino)-2H-[1,3′-bipyridin]-2-one], the IC50 was over 40100 nM in assay [1], 3520 nM in assay [2] and 10 nM against PCSK9 [3]. Further, on PCSK9 [4], the EC50 was found to be 700 nM.
For `O=c1ccc(OC(F)F)cn1-c1ccc(N[C@H]2CC[C@H](Nc3ncc(C4CC4)nn3)C2)nc1` [Example 166, 6′-(((1S,3S)-3-((6-Cyclopropyl-1,2,4-triazin-3-yl)amino)cyclopentyl)amino)-5-(difluoromethoxy)-2H-[1,3′-bipyridin]-2-one], in that order: 38200 nM, 2200 nM, 7.2 nM and 300 nM.
For `Cn1c(=O)n(-c2ccc(N[C@H]3CC[C@H](Nc4ncc(C5CC5)nn4)C3)nc2)c2cc(P(C)(C)=O)ccc21` [Example 125, 3-(6-(((1S,3S)-3-((6-Cyclopropyl-1,2,4-triazin-3-yl)amino)cyclopentyl)amino)pyridin-3-yl)-5-(dimethylphosphoryl)-1-methyl-1,3-dihydro-2H-benzo[d]imidazol-2-one], in that order: over 40100 nM, over 10000 nM, 2.7 nM and 100 nM.
For `Cc1cnc(N[C@H]2CC[C@H](Nc3ccc(-n4cc(-c5cn[nH]c5)ccc4=O)cn3)C2)nn1` [Example 202, 6′-(((1S,3S)-3-((6-Methyl-1,2,4-triazin-3-yl)amino)cyclopentyl)amino)-5-(1H-pyrazol-4-yl)-2H-[1,3′-bipyridin]-2-one], in that order: over 40100 nM, 7660 nM, 3.7 nM and 100 nM.
Turning to `O=C(NC1COC1)c1cnc(N[C@H]2CC[C@H](Nc3ccc(-n4cc(Cl)ccc4=O)cn3)C2)nn1` [Example 158, 3-(((1S,3S)-3-((5-Chloro-2-oxo-2H-[1,3′-bipyridin]-6′-yl)amino)cyclopentyl)amino)-N-(oxetan-3-yl)-1,2,4-triazine-6-carboxamide], the IC50 in assay [1] was over 40100 nM; in assay [2] it was over 10000 nM; at PCSK9 [3], 7.6 nM. Further, the EC50 at PCSK9 [4] amounted to 200 nM.
For `Cc1cccn(-c2ccc(N[C@H]3CC[C@H](Nc4ncc(C(=O)NC5COC5)nn4)C3)nc2)c1=O` [Example 155, 3-(((1S,3S)-3-((3-Methyl-2-oxo-2H-[1,3′-bipyridin]-6′-yl)amino)cyclopentyl)amino)-N-(oxetan-3-yl)-1,2,4-triazine-6-carboxamide], in that order: over 40100 nM, over 10000 nM, 2.7 nM and 100 nM.
With `Cc1ccc(=O)n(-c2ccc(N[C@H]3CC[C@H](Nc4ncc(C)nn4)C3)nc2)c1` [Example 130, 5-Methyl-6′-(((1S,3S)-3-((6-methyl-1,2,4-triazin-3-yl)amino)cyclopentyl)amino)-2H-[1,3′-bipyridin]-2-one], the results for the IC50 (in assay [1]; in assay [2]; against PCSK9 [3]) were over 40100 nM, 5700 nM and 14 nM, respectively. The EC50 on PCSK9 [4] is 200 nM.
`Cc1cnc(N[C@H]2CC[C@H](Nc3ccc(-n4cccc(OC(F)(F)F)c4=O)cn3)C2)nn1` [Example 138, 6′-(((1S,3S)-3-((6-Methyl-1,2,4-triazin-3-yl)amino)cyclopentyl)amino)-3-(trifluoromethoxy)-2H-[1,3′-bipyridin]-2-one]: the figures for the IC50 (in assay [1]; in assay [2]; on PCSK9 [3]) were over 40100 nM, over 10000 nM and 4 nM, respectively. On PCSK9 [4], the EC50 turned out to be 200 nM.
For `Cc1cnc(N[C@H]2CC[C@H](Nc3ccc(-n4cccc(C)c4=O)cn3)C2)nn1` (racemic) [Example 173, rel-3-Methyl-6′-(((1 R,3R)-3-((6-methyl-1,2,4-triazin-3-yl)amino)cyclopentyl)amino)-2H-[1,3′-bipyridin]-2-one], the IC50 in assay [1] was over 40100 nM; in assay [2] it was 1950 nM; at PCSK9 [3] it was 4.2 nM. The EC50 at PCSK9 [4] amounted to 100 nM.
For `Cc1cnc(N[C@H]2CC[C@H](Nc3ccc(-n4cc(-c5c[nH]nn5)ccc4=O)cn3)C2)nn1` [Example 208, 6′-(((1S,3S)-3-((6-Methyl-1,2,4-triazin-3-yl)amino)cyclopentyl)amino)-5-(1H-1,2,3-triazol-4-yl)-2H-[1,3′-bipyridin]-2-one], in that order: over 40100 nM, 1710 nM, 6.5 nM and 300 nM.
